PubChem BioAssay (NCI)
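Step 1: Grow cells in 96-well plates. Step 2: Expose to compound for 48 hours at 5 concentrations. Step 3: Interpolate endpoints linearly; if unreached, use highest concentration. Here, GI50 denotes the concentration required for 50% inhibition of growth. TGI is the concentration that stops growth completely.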

Experiments:
Assay in all cases: NCI anticancer screen, dose series, 48 h
UO-31 renal = test system: UO-31 renal
NCI-H460 lung = test system: NCI-H460 lung
DU-145 prostate = test system: DU-145 prostate
MOLT-4 leukemia = test system: MOLT-4 leukemia
CCRF-CEM leukemia = test system: CCRF-CEM leukemia
HCT-15 colon = test system: HCT-15 colon
EKVX NSCLC = test system: EKVX NSCLC
SK-MEL-5 melanoma = test system: SK-MEL-5 melanoma
OVCAR-3 ovarian = test system: OVCAR-3 ovarian
SNB-75 CNS = test system: SNB-75 CNS
UACC-62 melanoma = test system: UACC-62 melanoma
LOX IMVI melanoma = test system: LOX IMVI melanoma
HCT-116 colon = test system: HCT-116 colon
SK-MEL-2 melanoma = test system: SK-MEL-2 melanoma
NCI-H226 lung = test system: NCI-H226 lung
NCI-H522 lung = test system: NCI-H522 lung
K-562 leukemia = test system: K-562 leukemia
SR leukemia = test system: SR leukemia
A498 renal = test system: A498 renal
NCI-H23 lung = test system: NCI-H23 lung
786-0 renal = test system: 786-0 renal
KM12 colon = test system: KM12 colon
RXF 393 renal = test system: RXF 393 renal
NCI/ADR-RES ovarian = test system: NCI/ADR-RES ovarian
SK-MEL-28 melanoma = test system: SK-MEL-28 melanoma
T-47D breast = test system: T-47D breast
SN12C renal = test system: SN12C renal
MDA-MB-435 = test system: MDA-MB-435
BT-549 breast = test system: BT-549 breast
CAKI-1 renal = test system: CAKI-1 renal
OVCAR-5 ovarian = test system: OVCAR-5 ovarian
ACHN renal = test system: ACHN renal
MDA-MB-231 breast = test system: MDA-MB-231 breast
TK-10 renal = test system: TK-10 renal
HOP-62 NSCLC = test system: HOP-62 NSCLC
SNB-19 CNS = test system: SNB-19 CNS
SW-620 colon = test system: SW-620 colon
HS 578T breast = test system: HS 578T breast
IGROV1 ovarian = test system: IGROV1 ovarian
SF-295 CNS = test system: SF-295 CNS
SF-268 CNS = test system: SF-268 CNS
OVCAR-4 ovarian = test system: OVCAR-4 ovarian
A549 NSCLC = test system: A549 NSCLC
M14 melanoma = test system: M14 melanoma
OVCAR-8 ovarian = test system: OVCAR-8 ovarian
HOP-92 NSCLC = test system: HOP-92 NSCLC
PC-3 prostate = test system: PC-3 prostate
U251 CNS = test system: U251 CNS
MALME-3M melanoma = test system: MALME-3M melanoma
HT29 colon = test system: HT29 colon
HCC-2998 colon = test system: HCC-2998 colon
MCF7 breast = test system: MCF7 breast
HL-60(TB) leukemia = test system: HL-60(TB) leukemia
SK-OV-3 ovarian = test system: SK-OV-3 ovarian
RPMI-8226 leukemia = test system: RPMI-8226 leukemia
COLO 205 colon = test system: COLO 205 colon
UACC-257 melanoma = test system: UACC-257 melanoma
SF-539 CNS = test system: SF-539 CNS

## O=C(Nc1cc[c]([Sb](=[O])([OH])[OH])cc1)c1ccccc1
UO-31 renal
  GI50: > 100 µM
  TGI: > 100 µM
NCI-H460 lung
  GI50: > 100 µM
  TGI: > 100 µM
DU-145 prostate
  GI50: > 100 µM
  TGI: > 100 µM
MOLT-4 leukemia
  GI50: > 100 µM
  TGI: > 100 µM
CCRF-CEM leukemia
  GI50: > 100 µM
  TGI: > 100 µM
HCT-15 colon
  GI50: > 100 µM
  TGI: > 100 µM
EKVX NSCLC
  GI50: > 100 µM
  TGI: > 100 µM
SK-MEL-5 melanoma
  GI50: > 100 µM
  TGI: > 100 µM
OVCAR-3 ovarian
  GI50: > 100 µM
  TGI: > 100 µM
SNB-75 CNS
  GI50: > 100 µM
  TGI: > 100 µM
UACC-62 melanoma
  GI50: > 100 µM
  TGI: > 100 µM
LOX IMVI melanoma
  GI50: > 100 µM
  TGI: > 100 µM
HCT-116 colon
  GI50: > 100 µM
  TGI: > 100 µM
SK-MEL-2 melanoma
  GI50: > 100 µM
  TGI: > 100 µM
NCI-H226 lung
  GI50: > 100 µM
  TGI: > 100 µM
NCI-H522 lung
  GI50: > 100 µM
  TGI: > 100 µM
K-562 leukemia
  GI50: > 100 µM
  TGI: > 100 µM
SR leukemia
  GI50: > 100 µM
  TGI: > 100 µM
A498 renal
  GI50: > 100 µM
  TGI: > 100 µM
NCI-H23 lung
  GI50: > 100 µM
  TGI: > 100 µM
786-0 renal
  GI50: > 100 µM
  TGI: > 100 µM
KM12 colon
  GI50: > 100 µM
  TGI: > 100 µM
RXF 393 renal
  GI50: > 100 µM
  TGI: > 100 µM
NCI/ADR-RES ovarian
  GI50: > 100 µM
  TGI: > 100 µM
SK-MEL-28 melanoma
  GI50: > 100 µM
  TGI: > 100 µM
T-47D breast
  GI50: > 100 µM
  TGI: > 100 µM
SN12C renal
  GI50: > 100 µM
  TGI: > 100 µM
MDA-MB-435
  GI50: > 100 µM
  TGI: > 100 µM
BT-549 breast
  GI50: > 100 µM
  TGI: > 100 µM
CAKI-1 renal
  GI50: > 100 µM
  TGI: > 100 µM
OVCAR-5 ovarian
  GI50: > 100 µM
  TGI: > 100 µM
ACHN renal
  GI50: > 100 µM
  TGI: > 100 µM
MDA-MB-231 breast
  GI50: > 100 µM
  TGI: > 100 µM
TK-10 renal
  GI50: > 100 µM
  TGI: > 100 µM
HOP-62 NSCLC
  GI50: > 100 µM
  TGI: > 100 µM
SNB-19 CNS
  GI50: > 100 µM
  TGI: > 100 µM
SW-620 colon
  GI50: > 100 µM
  TGI: > 100 µM
HS 578T breast
  GI50: > 100 µM
  TGI: > 100 µM
IGROV1 ovarian
  GI50: > 100 µM
  TGI: > 100 µM
SF-295 CNS
  GI50: > 100 µM
  TGI: > 100 µM
SF-268 CNS
  GI50: > 100 µM
  TGI: > 100 µM
OVCAR-4 ovarian
  GI50: > 100 µM
  TGI: > 100 µM
A549 NSCLC
  GI50: > 100 µM
  TGI: > 100 µM
M14 melanoma
  GI50: > 100 µM
  TGI: > 100 µM
OVCAR-8 ovarian
  GI50: > 100 µM
  TGI: > 100 µM
HOP-92 NSCLC
  GI50: > 100 µM
  TGI: > 100 µM
PC-3 prostate
  GI50: > 100 µM
  TGI: > 100 µM
U251 CNS
  GI50: > 100 µM
  TGI: > 100 µM
MALME-3M melanoma
  GI50: > 100 µM
  TGI: > 100 µM
HT29 colon
  GI50: > 100 µM
  TGI: > 100 µM

## c1cn2cc(-c3ccc4ncn(C5CCCCC5)c4c3)nc(-c3ccc4c(c3)ncn4C3CCCCC3)c2n1
UO-31 renal
  GI50: 1.49 µM
  TGI: 2.85 µM
NCI-H460 lung
  GI50: 1.98 µM
  TGI: 4.02 µM
MOLT-4 leukemia
  GI50: 1.64 µM
  TGI: 5.22 µM
CCRF-CEM leukemia
  GI50: 1.69 µM
  TGI: 6.08 µM
SK-MEL-5 melanoma
  GI50: 1.49 µM
  TGI: 2.83 µM
HCC-2998 colon
  GI50: 1.81 µM
  TGI: 3.45 µM
OVCAR-3 ovarian
  GI50: 1.83 µM
  TGI: 3.36 µM
SNB-75 CNS
  GI50: 1.39 µM
  TGI: 3.07 µM
SK-MEL-2 melanoma
  GI50: 1.74 µM
  TGI: 3.35 µM
K-562 leukemia
  GI50: 2.58 µM
  TGI: > 100 µM
SR leukemia
  GI50: 2.87 µM
  TGI: > 100 µM
MCF7 breast
  GI50: 1.8 µM
  TGI: 4.58 µM
A498 renal
  GI50: 1.77 µM
  TGI: 3.22 µM
HL-60(TB) leukemia
  GI50: 1.84 µM
  TGI: 4.57 µM
SK-OV-3 ovarian
  GI50: 2.27 µM
  TGI: 4.1 µM
RXF 393 renal
  GI50: 1.51 µM
  TGI: 3 µM
NCI/ADR-RES ovarian
  GI50: 2.34 µM
  TGI: 7.33 µM
RPMI-8226 leukemia
  GI50: 0.806 µM
  TGI: 3.99 µM
SK-MEL-28 melanoma
  GI50: 1.81 µM
  TGI: 3.41 µM
T-47D breast
  GI50: 1.9 µM
  TGI: 4.69 µM
SN12C renal
  GI50: 2.05 µM
  TGI: 4.53 µM
MDA-MB-435
  GI50: 1.77 µM
  TGI: 3.54 µM
BT-549 breast
  GI50: 1.94 µM
  TGI: 3.64 µM
CAKI-1 renal
  GI50: 1.46 µM
  TGI: 2.95 µM
ACHN renal
  GI50: 1.68 µM
  TGI: 3.07 µM
MDA-MB-231 breast
  GI50: 1.29 µM
  TGI: 3.08 µM
COLO 205 colon
  GI50: 1.93 µM
  TGI: 3.79 µM
HOP-62 NSCLC
  GI50: 2 µM
  TGI: 3.72 µM
SNB-19 CNS
  GI50: 2.11 µM
  TGI: 4.95 µM
HS 578T breast
  GI50: 2.39 µM
  TGI: 6.74 µM
SF-295 CNS
  GI50: 1.71 µM
  TGI: 3.15 µM
SF-268 CNS
  GI50: 1.59 µM
  TGI: 3.15 µM
OVCAR-4 ovarian
  GI50: 2.17 µM
  TGI: 6.3 µM
A549 NSCLC
  GI50: 1.94 µM
  TGI: 3.54 µM
UACC-257 melanoma
  GI50: 2.1 µM
  TGI: 3.62 µM
OVCAR-8 ovarian
  GI50: 2.55 µM
  TGI: 9.49 µM
SF-539 CNS
  GI50: 1.63 µM
  TGI: 3.15 µM
HOP-92 NSCLC
  GI50: 1.54 µM
  TGI: 3.22 µM
U251 CNS
  GI50: 1.91 µM
  TGI: 3.65 µM
MALME-3M melanoma
  GI50: 2.11 µM
  TGI: 3.75 µM
HT29 colon
  GI50: 2.44 µM
  TGI: 5.2 µM
